Values joined by “and” are separate entries in the source; they are usually repeats but may differ in a detail not shown here. Equal entries are not always repeated.
Tested on: 521955-158-R2-J5-PDC complex spheroid viability
Assay: Anticancer human tumor 521955-158-R2-J5-PDC patient-derived pancreatic carcinoma cell line growth inhibition
Conditions: for viability, T/C: stronger effect = lower value
From the text: Multicellular complex tumor spheroid response to LSD1 Inhibitor Iadademstat in combination with a variety of drugs and investigational agents in selected tumor cell lines
The current study was undertaken to assess response to LSD1 inhibitors in combination with standard-of-care drugs and investigational agents in solid tumor complex spheroid models as well as in the K-562 leukemia. Complex spheroids include a stromal component modeled by human endothelial cells (HUVEC) and fibroblasts modeled by human mesenchymal stem cells (MSCs). The concentration ranges selected for each drug and investigational agent were based upon clinically achievable concentrations if the clinical Cmax of the agent was known.
Compounds. The drugs and investigational agents used in this study are listed on Table 1. All of the agents used, including staurosporine (NSC755774) and gemcitabine (NSC613327), were obtained from the Developmental Therapeutics Program, NCI. FDA-approved anticancer drugs are available from the NCI at http://dtp.nci.nih.gov/branches/dscb/oncology_drugset_explanation.html. Drugs and investigational agents were >95% pure by proton nuclear magnetic resonance (NMR) and liquid chromatography/mass spectrometry (LC/MS). Stock solutions were prepared at 400x in DMSO, stored at -70 degrees C, and diluted in fresh medium prior to their use. The final concentration of DMSO in cell culture wells never exceeded 0.25% (v/v). The FDA-approved anticancer drug set is available from the Developmental Therapeutics Program at https://dtp.cancer.gov/organization/dscb/obtaining/available_plates.htm. All drugs and investigational agents were tested over a range starting from a high concentration at or near the clinical Cmax and decreasing in half-log increments. If the clinical Cmax for an agent had not been determined, the highest concentration tested was 10 microM.
Cell Lines. The patient-derived cancer cell (PDC) lines: 292921-168-R-J2-PDC, K24384-001-R-PDC, and 521955-158-R2-J5-PDC pancreatic carcinomas, 556581-035-R-J1 ovarian carcinoma, 324938-238-R-J1-PDC, 855422-203-R-J1-PDC and 883617-216-R-J1-PDC urothelial bladder carcinomas, 743489-274-T-PDC renal cell carcinoma, 138582-R-J1 Merkel cell tumor, K60290-347-R-J1 and K57222-313-R-J1-PDC glioblastomas, 653999-131-R-J2-PDC, LG0703-F948-PDC, and 349418-098-R-PDC non-small cell lung carcinomas, 885512-296-R-J2-PDC, 171881-019-R-J1-PDC breast carcinomas and 186277-243-T-J2-PDC and 233499-124-R-J2-PDC colon carcinomas were obtained from the NCI Patient-Derived Models Repository (PDMR, https://pdmr.cancer.gov). The established cell lines NCI/ADR-RES (RRID:CVCL_14520 and OVCAR-5 (RRID:CVCL_1628) ovarian carcinomas, 786-O (RRID:CVCL_1051) and A498 (RRID:CVCL_A498) renal cell carcinoma, NCI-H211 (ATCC, cat. CRL-5824; RRID:CVCL_1529), NCI-H196 (ATCC, cat. CRL-5823, RRID:CVCL_1509), SW 1271 (ATCC, cat. CRL-2177, RRID:CVCL_1716) and NCI-H1876 (ATCC, cat. CRL-5902, RRID:CVCL_1503) small cell lung carcinomas, MDA-MB-231 (RRID:CVCL_0062) and MDA-MB-468 (RRID:CVCL_0419)breast carcinomas (10-12). Pooled donor human umbilical vein endothelial cells (HUVEC, Lonza, cat. CC-2519) and human mesenchymal stem cells (hMSC, Lonza, cat. PT-2501) were purchased from Lonza (Walkersville, MD).
Cell Culture. All cells were maintained in an incubator at 37 degrees C and 5% CO2 with 95% humidity. The PDC lines were cultured according to standard operating procedures established by the NCI PDMR (https://pdmr.cancer.gov). Briefly all PDCs were thawed and cultured in Matrigel-coated flasks prepared with a working solution of 1X Ham's F-12 nutrient mix, without supplementation (Invitrogen, Waltham, MA, cat. 11765054), 100 U/mL penicillin-streptomycin (Invitrogen, cat. 15140122), and 2.5% Matrigel (Corning Inc., Corning, NY, cat. 354248) for the first three passages. […]

[1] = curve of first compound, second compound 0.1 µM
[2] = curve of first compound, second compound 0.316 µM
[3] = curve of first compound, second compound 1 µM
[4] = curve of first compound, second compound 3.16 µM
[5] = curve of first compound, second compound 10 µM
[6] = second compound 0.1 µM, first compound 0.0316 µM
[7] = second compound 0.1 µM, first compound 0.1 µM
[8] = second compound 0.316 µM, first compound 0.0316 µM
[9] = second compound 0.316 µM, first compound 0.1 µM
[10] = second compound 1 µM, first compound 0.0316 µM
[11] = second compound 1 µM, first compound 0.1 µM
[12] = second compound 3.16 µM, first compound 0.0316 µM
[13] = second compound 3.16 µM, first compound 0.1 µM
[14] = second compound 10 µM, first compound 0.0316 µM
[15] = second compound 10 µM, first compound 0.1 µM
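Also: spheroids exposed to agents for seven days.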
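For viability, T/C in this document: percent of DMSO vehicle control luminescence viability.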

For CC(C)CC(NC(=O)C(Cc1ccccc1)NC(=O)c1cnccn1)B(O)O (configuration not stated) + NC1CC1c1ccc(-c2cccc(O)c2)cc1, the IC50 [1] was 0.538 nM, the IC50 [2] was 0.504 nM and the IC50 [3] was 0.515 nM. For the same molecule, the IC50 [4] was 0.462 nM, the IC50 [5] was 0.336 nM and the viability, T/C (second compound 0.1 µM, first compound 0.000316 µM) was 92.2%. It also gave a viability, T/C (second compound 0.1 µM, first compound 0.001 µM) of 0.66%, a viability, T/C (second compound 0.1 µM, first compound 0.00316 µM) of 0.11% and a viability, T/C (second compound 0.1 µM, first compound 0.01 µM) of 0.08%. It also gave a viability, T/C [6] of 0.09%, a viability, T/C [7] of 0.26% and a viability, T/C (second compound 0.316 µM, first compound 0.000316 µM) of 83.8%. It also gave a viability, T/C (second compound 0.316 µM, first compound 0.001 µM) of 0.44%, a viability, T/C (second compound 0.316 µM, first compound 0.00316 µM) of 0.17% and a viability, T/C (second compound 0.316 µM, first compound 0.01 µM) of 0.18%. It also gave a viability, T/C [8] of 0.1%, a viability, T/C [9] of 0.3% and a viability, T/C (second compound 1 µM, first compound 0.000316 µM) of 86.6%. The viability, T/C (second compound 1 µM, first compound 0.001 µM) was 0.35%, the viability, T/C (second compound 1 µM, first compound 0.00316 µM) was 0.24% and the viability, T/C (second compound 1 µM, first compound 0.01 µM) was 0.04%. It also gave a viability, T/C [10] of 0.06%, a viability, T/C [11] of 0.28% and a viability, T/C (second compound 3.16 µM, first compound 0.000316 µM) of 74.4%. It also gave a viability, T/C (second compound 3.16 µM, first compound 0.001 µM) of 0.52%, a viability, T/C (second compound 3.16 µM, first compound 0.00316 µM) of 0.15% and a viability, T/C (second compound 3.16 µM, first compound 0.01 µM) of 0.08%. The viability, T/C [12] was 0.07%, the viability, T/C [13] was 0.2% and the viability, T/C (second compound 10 µM, first compound 0.000316 µM) was 52.8%. It also gave a viability, T/C (second compound 10 µM, first compound 0.001 µM) of 0.4%, a viability, T/C (second compound 10 µM, first compound 0.00316 µM) of 0.22% and a viability, T/C (second compound 10 µM, first compound 0.01 µM) of 2.1%. It also gave a viability, T/C [14] of 0.17% and a viability, T/C [15] of 1.31%.

NS(=O)(=O)OCC1CC(n2ccc3c(NC4CCc5ccccc54)ncnc32)CC1O (configuration not stated) was tested, and the viability, T/C (compound 0.00949 µM) was 79% and 92.2%, the viability, T/C (compound 0.03 µM) was 51.8% and 75% and the viability, T/C (compound 0.0949 µM) was 24.6% and 38.1%. For the same molecule, the viability, T/C (compound 0.3 µM) was 16.3% and 20.5%, the viability, T/C (compound 0.949 µM) was 14.1% and 15.6% and the viability, T/C (compound 3 µM) was 9.5% and 9.51%. The IC50 (curve of compound) was 31.9 nM and 67 nM.

With CC1(C)CCC(CN2CCN(c3ccc(C(=O)NS(=O)(=O)c4ccc(NCC5CCOCC5)c([N+](=O)[O-])c4)c(Oc4cnc5[nH]ccc5c4)c3)CC2)=C(c2ccc(Cl)cc2)C1 + NC1CC1c1ccc(-c2cccc(O)c2)cc1 the IC50 [1] was 3980 nM, the IC50 [2] was 3860 nM and the IC50 [3] was 3900 nM. The IC50 [4] was 4070 nM, the IC50 [5] was 3860 nM and the viability, T/C [6] was 93.2%. The viability, T/C [7] was 86%, the viability, T/C (second compound 0.1 µM, first compound 0.316 µM) was 95.6% and the viability, T/C (second compound 0.1 µM, first compound 1 µM) was 92.8%. For the same molecule, the viability, T/C (second compound 0.1 µM, first compound 3.16 µM) was 62.4%, the viability, T/C (second compound 0.1 µM, first compound 10 µM) was 0.69% and the viability, T/C [8] was 81.4%. The viability, T/C [9] was 93.3%, the viability, T/C (second compound 0.316 µM, first compound 0.316 µM) was 91.6% and the viability, T/C (second compound 0.316 µM, first compound 1 µM) was 84.6%. The viability, T/C (second compound 0.316 µM, first compound 3.16 µM) was 60.4%, the viability, T/C (second compound 0.316 µM, first compound 10 µM) was 1.04% and the viability, T/C [10] was 82%. For the same molecule, the viability, T/C [11] was 92.6%, the viability, T/C (second compound 1 µM, first compound 0.316 µM) was 96.4% and the viability, T/C (second compound 1 µM, first compound 1 µM) was 86.9%. It also gave a viability, T/C (second compound 1 µM, first compound 3.16 µM) of 61%, a viability, T/C (second compound 1 µM, first compound 10 µM) of 0.96% and a viability, T/C [12] of 87.9%. It also gave a viability, T/C [13] of 89.4%, a viability, T/C (second compound 3.16 µM, first compound 0.316 µM) of 99.4% and a viability, T/C (second compound 3.16 µM, first compound 1 µM) of 90.2%. It also gave a viability, T/C (second compound 3.16 µM, first compound 3.16 µM) of 63.7%, a viability, T/C (second compound 3.16 µM, first compound 10 µM) of 1.07% and a viability, T/C [14] of 98.4%. It also gave a viability, T/C [15] of 103%, a viability, T/C (second compound 10 µM, first compound 0.316 µM) of 107% and a viability, T/C (second compound 10 µM, first compound 1 µM) of 86.6%. The viability, T/C (second compound 10 µM, first compound 3.16 µM) was 61.2% and the viability, T/C (second compound 10 µM, first compound 10 µM) was 0.78%.
